Patent US20260174179A1, “ANTI-INFECTIVE SHOE SOLES” (priority 2019, published 2026)

Test system: Pseudomonas aeruginosa (PAO)
Experiment: Kirby-Bauer disk diffusion test, agar overlay culture
Format: cell-based
Details: 6 mm disk, 24 hours at 37° C.
Method: FIG. 13 is a schematic illustrating a Kirby-Bauer Disk Diffusion test. Bacterial cells are plated from a broth culture onto sterile agar petri dishes, and antibiotic soaked paper disks (or control disks without antibiotic) are placed directly on the dish. After 24 or more hours, a confluent layer of bacteria appear to grow up on the dish. Clearing or clear but hazy zones indicate antibiotic sensitivity of the test microbe. The size of the killing zone reflects how well the antibiotic diffuses into the agar and sensitivity of the organism.
FIG. 14A is an image showing the results of a Disk Diffusion test with Pseudomonas aeruginosa (PAO). Three disks were placed on a PAO/agar overlay culture: a penicillin-soaked paper disk, a negative control (no treatment) paper disk, and a sterile punch disk of pure elemental sheet copper, and the culture was incubated for 24 hours. Zones of inhibition are marked as clearing zones (dashed circles) where bacterial growth was stunted. […]
In some studies, a disk-diffusion test was used as a model for testing diffusion and bacterial targeting (FIG. 13). […] The bacteria were allowed to grow on the agar media, and growth was observed using a simple read-out: a zone of clearing around a disk indicated no bacterial growth, and conversely, the lack of a clearing perimeter indicated bacterial resistance. […]

penicillin
clearing extended from the edge of the disk: 5-7 mm
killing zone (FIG. 14A): 6 mm
